The results in this text go back to US7268131B2, “Substituted [1,4]oxazino[2,3-g]indazoles for the treatment of glaucoma” (Alcon, Inc., priority 2003, dated 2007).

Data set [1] addresses T1, 5-HT2A (Rattus norvegicus, UniProt P14842). The data set can be described thus: 5-HT2 Receptor Binding Assay ([125I]DOI competition). To be noted: competition for [125I]DOI binding, rat or human cerebral cortex homogenates. The protocol: 5-HT2 Receptor Binding Assay
Aliquots of post mortem rat or human cerebral cortex homogenates (400 μL) dispersed in 50 mM Tris HCl buffer (pH 7.4) are incubated with [^125I]DOI (80 pM final) in the absence or presence of methiothepin (10 μM final) to define total and non-specific binding, respectively, in a total volume of 0.5 mL. The assay mixture is incubated for 1 hour at 23° C. in polypropylene tubes and the assays terminated by rapid vacuum filtration over Whatman GF/B glass fiber filters previously soaked in 0.3% polyethyleneimine using ice-cold buffer. Test compounds (at different concentrations) are substituted for methiothepin. Filter-bound radioactivity is determined by scintillation spectrometry on a beta counter. The data are analyzed using a non-linear, iterative curve-fitting computer program [Trends Pharmacol. Sci., 16, 413 (1995)] to determine the compound affinity parameter. The concentration of the compound needed to inhibit the [^125I]DOI binding by 50% of the maximum is termed the IC50 or Ki value.

Data set [2] has as its target T1, 5-HT2A. Nature of the data set: 5-HT2 functional Assay: [Ca2+]i Mobilization (FLIPR). The class given is cell-based. Further details: endogenous in cells; host or cells: A7r5 rat vascular smooth muscle cells. To be noted: for EC50: [Ca2+]i mobilization, A7r5 rat vascular smooth muscle cells, FLIPR; for Emax: percentage of a maximum 5-HT-induced response, A7r5 cells. The protocol:
5-HT2 functional Assay: [Ca^2+]i Mobilization
The receptor-mediated mobilization on intracellular calcium ([Ca^2+]i) was studied using the Fluorescence Imaging Plate Reader (FLIPR) instrument. Rat vascular smooth muscle cells, A7r5, were grown in a normal media of DMEM/10% FBS and 10 μg/mL gentamycin. Confluent cell monolayers were trypsinized, pelleted, and re-suspended in normal media. Cells were seeded in a 50 μL volume at a density of 20,000 cells/well in a black wall, 96-well tissue culture plate and grown for 2 days.
On the day of the experiment, one vial of FLIPR Calcium Assay Kit dye was re-suspended in 50 mL of a FLIPR buffer consisting of Hank's Balanced Salt Solution (HBSS), 20 mM HEPES, and 2.5 mM probenecid, pH 7.4. Cells were loaded with the calcium-sensitive dye by addition of an equal volume (50 μL) to each well of the 96-well plate and incubated with dye for 1 h at 23° C.
Typically, test compounds were stored at 25 μM in 50% DMSO/50% Ethanol solvent. Compounds were diluted 1:50 in 20% DMSO/20% Ethanol. For “hit” screening, compounds were further diluted 1:10 in FLIPR buffer and tested at a final concentration of 10 μM. For dose-response experiments, compounds were diluted 1:50 in FLIPR buffer and serially diluted 1:10 to give a 5- or 8-point dose-response curve.
The compound plate and cell plate were placed in the FLIPR instrument. At the beginning of an experimental run, a signal test was performed to check the basal fluorescence signal from the dye-loaded cells and the uniformity of the signal across the plate. The basal fluorescence was adjusted between 8000-12000 counts by modifying the exposure time, the camera F-stop, or the laser power. Instrument settings for a typical assay were the following: laser power 0.3-0.6 W, camera F-stop F/2, and exposure time 0.4 sec. An aliquot (25 μL) of the test compound was added to the existing 100 μL dye-loaded cells at a dispensing speed of 50 μL/sec. Fluorescence data were collected in real-time at 1.0 sec intervals for the first 60 secs and at 6.0 sec intervals for an additional 120 secs. Responses were measured as peak fluorescence intensity minus basal and where appropriate were expressed as a percentage of a maximum 5-HT-induced response. When the compounds were tested as antagonists against 10 μM 5-HT, they were incubated with the cells for 15 minutes prior to the addition of 5-HT.

Structures can show the parent of a compound that is named as a salt.

T1 sequence (P14842 whole entry): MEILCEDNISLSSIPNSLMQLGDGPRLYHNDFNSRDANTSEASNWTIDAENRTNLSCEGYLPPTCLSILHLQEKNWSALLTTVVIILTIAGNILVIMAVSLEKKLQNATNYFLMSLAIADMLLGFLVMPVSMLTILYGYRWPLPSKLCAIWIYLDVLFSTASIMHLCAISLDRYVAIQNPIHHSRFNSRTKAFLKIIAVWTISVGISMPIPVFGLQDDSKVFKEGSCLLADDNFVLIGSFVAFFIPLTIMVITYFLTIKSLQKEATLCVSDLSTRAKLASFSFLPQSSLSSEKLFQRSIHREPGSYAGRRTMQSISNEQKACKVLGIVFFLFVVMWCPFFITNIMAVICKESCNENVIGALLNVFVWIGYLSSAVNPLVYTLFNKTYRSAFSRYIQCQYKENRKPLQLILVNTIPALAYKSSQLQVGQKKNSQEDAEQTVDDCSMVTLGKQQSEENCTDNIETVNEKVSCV

As for `C[C@H](N)Cn1ncc2ccc3c(c21)N(C)CCO3.O=C(O)/C=C/C(=O)O` [Example 1, (S)-2-(8,9-dihydro-9-methyl-7H-[1,4]oxazino[2,3-g]indazol-1-yl)-1-methylethylamine fumarate], the melting point (commonly the temperature of the solid-liquid transition) was 185 to 187 °C. In addition, the IC50 (usually the midpoint of a concentration-inhibition curve) in data set [1] stood at 1 nM. Further, in data set [2], the response was half-maximal at 20 nM (EC50) and the Emax (in general, the size of the effect at its maximum, as opposed to the concentration needed) was 82%.

`C[C@H](N)Cn1ncc2ccc3c(c21)NC(=O)CO3.Cl` [Example 2, 1-((S)-2-Aminopropyl)-1,9-dihydro-7H-[1,4]oxazino[2,3-g]indazol-8-one hydrochloride] yielded a melting point of 293 to 295 °C. In data set [1], the IC50 came to 3.5 nM. In data set [2], a half-maximal response (EC50) required 195 nM and the maximal effect (Emax) came to 60%.

Turning to `C[C@H](N)Cn1ncc2ccc3c(c21)N(C)C(=O)CO3` [Example 3, 1-((S)-2-Aminopropyl)-1,9-dihydro-9-methyl-7H-[1,4]oxazino[2,3-g]indazol-8-one hydrochloride], the IC50 in data set [1] was determined as 7.6 nM. In addition, in data set [2], the EC50 (usually the concentration at which the effect is half-maximal) is 550 nM and the Emax came to 41%.
